ChEMBL document CHEMBL1201862, “PubChem BioAssay data set” (2004)
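Results reflect a 48-hour exposure of cells in 96-well plates to compound at five concentrations. GI50 = concentration required for 50% inhibition of growth.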 Activity calls are given as the source filed them. Cut-off read from the data, not from the text of the source: active = GI50 up to about 1.1 µM and inactive = higher.

Tests used:
Experiment in all cases: inhibition of tumour cell growth, NCI panel, 48 h
[1] = tested on: NCI-H460
[2] = tested on: SF-295
[3] = tested on: SNB-78
[4] = tested on: M14
[5] = tested on: RPMI-8226
[6] = tested on: IGROV-1
[7] = tested on: NCI-H226
[8] = tested on: UO-31
[9] = tested on: CCRF-CEM
[10] = tested on: SK-OV-3
[11] = tested on: K562
[12] = tested on: SN12C
[13] = tested on: 786-0
[14] = tested on: OVCAR-3
[15] = tested on: TK-10
[16] = tested on: UACC-257
[17] = tested on: SK-MEL-2

Measured: GI50

Cn1cnc([N+](=O)[O-])c1Sc1nc2cccnc2[nH]1
inactive: [1] > 100 µM | [2] 37.7 µM | [3] > 100 µM | [4] > 100 µM | [5] 68.5 µM | [6] 71.4 µM | [7] > 100 µM | [8] 89.7 µM | [9] 14.5 µM | [10] > 100 µM | [11] 22.8 µM | [12] 40.3 µM | [13] > 100 µM | [14] > 100 µM | [15] 55.6 µM | [16] 91.2 µM

CC(C)(C)NN=C1C(C)(C)C(=NNC(C)(C)C)C1(C)C
inactive: [1] > 100 µM | [2] > 100 µM | [3] > 100 µM | [4] > 100 µM | [5] > 100 µM | [6] > 100 µM | [7] > 100 µM | [8] > 100 µM | [10] > 100 µM | [11] > 100 µM | [12] > 100 µM | [13] > 100 µM | [14] > 100 µM | [15] > 100 µM | [16] > 100 µM

CCO/C=C\C12CCCC1NC(c1ccccc1)(c1ccccc1)O2 (centres undefined)
inactive: [1] 48.8 µM | [2] 32.7 µM | [3] 54.8 µM | [4] 22.5 µM | [6] 28 µM | [7] 43.8 µM | [8] 28.8 µM | [9] 21.5 µM | [10] 40.4 µM | [11] 20.1 µM | [12] 25.7 µM | [17] 23.2 µM | [13] 32.7 µM | [14] 27.9 µM | [15] 31.5 µM | [16] 27.5 µM

O=C(O)CCSC(=O)Nc1cccc2ccccc12
inactive: [1] > 100 µM | [2] > 100 µM | [3] > 100 µM | [4] > 100 µM | [5] > 100 µM | [6] > 100 µM | [7] > 100 µM | [8] > 100 µM | [9] > 100 µM | [10] > 100 µM | [11] > 100 µM | [12] > 100 µM | [13] > 100 µM | [14] > 100 µM | [15] > 100 µM | [16] > 100 µM

CC1CCC(O)C(C(O)CC2CC(=O)N(C)C(=O)C2)C1 (centres undefined)
inactive: [1] > 100 µM | [2] > 100 µM | [3] > 100 µM | [4] > 100 µM | [5] > 100 µM | [6] > 100 µM | [7] > 100 µM | [8] > 100 µM | [9] > 100 µM | [10] > 100 µM | [11] > 100 µM | [12] > 100 µM | [13] > 100 µM | [14] > 100 µM | [15] > 100 µM | [16] > 100 µM
